We go through two substances from patent publication US9221900B2, “Methods for identifying safe and functional humanized antibodies” (AC IMMUNE S.A., priority 2010, dated 2015).

The test system of assay [1] is mixed cortical cells from P1 rats. Briefly: Aβ1-42 oligomer cytotoxicity assay, MTT readout. As to conditions: for reversal of Aβ1-42 oligomer-mediated toxicity: mixed primary cortical cultures, different IgG backbones. Type of assay: cell-based, rat. As for the experimental part:
FIG. 2 provides graphs and immunocytochemical images corresponding to the experiments described in Example 6.3. […] An MTT assay was used to determine cell viability as described in the Methods section. The means (±SEM) of five independent experiments are shown. *P<0.05, **P<0.01. […] Neurotoxicity following extended Aβ1-42 oligomer treatment was tested by morphological analyses (C).
A non-specific IgG monoclonal antibody was used as a control in all experiments.
Rat primary cortical cultures were prepared from Sprague-Dawley rats (Charles River Laboratories L'Arbresle, France) at post-natal day 1, as described by Meberg and Miller (Meberg and Miller, 2003). Cerebellum and meninges were removed, and cortices were cut into small pieces and dissociated with enzymatic disruption at 37° C. in dissociation buffer (papaine, CaCl2, EDTA, and HEPES; all from Invitrogen, Carlsbad, Calif.). DNase (Invitrogen) was added for 10 min. Following dissociation, dispersed cortical neurons were plated onto poly-L-lysine (0.01%; mol. wt 150,000-300,000; Sigma) coated 6-well, 24-well, or 96-well tissue culture plates. For immunocytochemistry, cells were grown on coated glass coverslips, into 24-well plates. Cells were maintained in Neurobasal media (Invitrogen) without phenol-red, with the addition of L-glutamine (2 mM; Sigma), B27 supplement (Invitrogen), and penicillin/streptomycin (Sigma) in a humidified incubator at 37° C. and 5% CO2. Following 1 h and 30 min in culture, the media was replaced with astrocyte-conditioned medium. After a further 4 days in culture, cell proliferation was blocked by treatment with cytosine arabinoside (Ara-C) at 2.5 μM (Invitrogen). Under these culture conditions, 20% of cells were identified as neurons by NeuN/DAPI staining (not shown). Experiments using mixed cortical cultures were generally performed at days-in-vitro (“DIV”) 6 unless stated otherwise. Enriched microglia prepared from cortex and hippocampus were harvested as described for cortical cultures above. Cortex and hippocampus were put in DMEM containing high glucose and homogenized by pipetting with a 10 mL pipette and then with a syringe. The homogenate was centrifuged for 3 min at 1,000×g, and then resuspended in pre-warmed DMEM containing high glucose containing 10% FCS and penicillin/streptomycin (microglia media). The cell suspension was next transferred to a T75 tissue-culture flask and kept in a humidified incubator at 37° C. and 5% CO2 for 1 week. The flask was shaken to separate microglia from adherent cells, and collected and washed in DMEM. The resulting cells were resuspended in 1 mL microglia media, counted, and plated at 5×10^4 cells/well. To verify microglial enrichment, cells were stained with the astroglial and microglial markers GFAP and Iba1, respectively. Greater than 60% of cells stained positive for Iba1, with no cells staining for both GFAP and Iba1. Pure microglia were prepared from post-natal day 3 CX3CR1-GFP mice (Jackson Laboratories). Cortex and hippocampus were dissected and triturated in DMEM containing high glucose using a 10 mL pipette, and then with an 18 gauge needle. The homogenate was centrifuged for 3 min at 1,000 g, and then resuspended in pre-warmed DMEM containing high glucose, 10% FBS and penicillin/streptomycin (microglia media). The cell suspension was next transferred to a T75 tissue-culture flask and kept in a humidified incubator at 37° C. and 5% CO2 for 7-10 d. Microglia were isolated by shaking, collected and washed in DMEM. The resulting cells were resuspended in 1 mL microglia media, counted, and plated on tissue culture treated glass chamber slides at 5×10^4 cells/well for use in experiments.
The cytotoxicity of Aβ1-42 oligomers was tested on mixed cortical cultures at DIV 5. All antibodies, at a final concentration of 100 μg/mL, were co-incubated with Aβ1-42 oligomers for 30 min in serum-free cell culture medium at 37° C. before treatment of cells. […]

For assay [2], the system named is human Fcγ receptors (FcγRIa, FcγRIIa, FcγRIIb, FcγRIIIa). Briefly: FcγR binding ELISA, panel of human Fcγ receptors. As to conditions: cross-linked antibody. The method, then: FIG. 10 provides graphs and immunocytochemical images corresponding to the experiments described in Example 6.5. […] These findings are consistent with published data for human IgG4 antibodies (Gessner et al., 1998) and IgG1 antibodies carrying the D265A mutation (Shields et al., 2001).
The binding of test antibodies to a panel of human Fcγ receptors (FcγRs) was measured using enzyme-linked immunosorbent assay (ELISA). Human FcγRs (Genentech, Inc., CA) are fusion proteins containing the extracellular domain of the receptor γ-chain with a Gly/6xHis/glutathione S transferase (GST) polypeptide tag at the C terminus. A monoclonal antibody with human IgG1 framework was used as the positive control (IgG1 control) in this experiment. Plates were coated with a mouse monoclonal anti GST antibody (Genentech, Inc.) in a 0.05 M sodium carbonate buffer (pH 9.6) overnight at 4° C. After blocking with an assay buffer containing phosphate buffered saline (PBS), 0.5% BSA, and 0.05% Tween-20, the plates were incubated with FcγRs at room temperature for 1 h. Human FcγRs were immobilized to the plate via interaction with the anti-GST coating. […] Diluted samples were applied as monomeric forms for the high affinity receptor (FcγRIa), or multimeric forms for the low affinity receptors (FcγRIIa, FcγRIIb, and FcγRIIIa). The multimeric forms of test antibodies were generated by cross linking F(ab′)2 fragment of goat anti human κ-chain (MP Biomedicals, Solon, Ohio), with test monoclonal antibody at an approximate molar ratio of 3:1. The plates were incubated with FcγRs at room temperature for 2 h. […] The antibodies bound to the FcγRs were detected with horseradish peroxidase (HRP)-conjugated F(ab′)2 fragment of goat anti human F(ab′)2 (Jackson ImmunoResearch Laboratories; West Grove, Pa.). […] The reaction was terminated with 1 M H3PO4, and absorbance at 450 nm with reference at 650 nm was measured on a plate reader (Molecular Devices, Sunnyvale, Calif.). Binding curves were generated by plotting the mean absorbance values from duplicates of sample dilutions against the respective sample […].
In general terms: ELISA stands for enzyme-linked immunosorbent assay.

Entries after “also recorded” stand apart in the source; their conditions may differ.

On to “MABT-IgG1: same antigen binding sequences as MABT on human IgG1 wild-type backbone with full FcγR-binding capacity”, for which the “reversal of Aβ1-42 oligomer-mediated toxicity” value in assay [1] is listed as “full reversal of Aβ1-42 oligomer-mediated toxicity; also recorded: trended towards a smaller protective effect when compared to MABT”. Besides, in assay [2], the “binding to FcγRs” value is given as “bound to all FcRγ receptors with activities similar to the positive non-Aβ-binding IgG1 control”.
As to “MABT: humanized anti-Aβ monoclonal antibody of IgG4 isotype, affinity matured and humanized form of mouse mMABT”, the “antibody-mediated increase in MTT signal under p38MAPK inhibition” value in assay [1] (10 μM Aβ1-42 oligomers, 100 μg/ml antibody, 1 μM SB239063, 24 h) is recorded as “reduced to that of MABT-IgG1-D265A”. Besides, the “rescue from Aβ1-42 oligomer toxicity (MTT)” value in assay [1] (Aβ1-42 oligomer up to 5 μM, 24 h, MABT to oligomer molar ratio 1:7.5) was “complete rescue from toxicity”. Besides, the “reversal of Aβ1-42 oligomer-mediated toxicity” value in assay [1] was “full reversal of Aβ1-42 oligomer-mediated toxicity”. The “binding to FcγRs” value in assay [2] is “substantially reduced binding to all the FcγRs”.
